Laboratory results from patent US10183944B2 (Asana Biosciences, LLC, priority 2011, dated 2019).
Where a name gives a salt, the structure may show the parent alone.

Columns and labels:
JAK2 = JAK2 (Homo sapiens (Human), UniProt O60674); test: Inhibition of enzymatic JAK2 kinase activity (TR-FRET); format: biochemical; conditions: read-out: IC50 JAK
Source text: The objective of this assay was to screen compounds in a Time-resolved fluorescence resonance energy transfer (TR-FRET) Enzymatic assay method for their potential to inhibit JAK2 (Janus kinase) activity.
TR-FRET assays are homogeneous proximity assays where Eu-labeled antiphosphotyrosine antibody binds to the phosphorylated substrates labeled with Ulight fluorescence acceptor. Eu can transfer energy to Ulight accepter in the complex and the interaction of two dye-labeled binding partners is detected by the energy transfer between a donor and an acceptor dye, and the subsequent light emission by the acceptor dye. The intensity of the light emission is proportional to the level of Ulight peptide phosphorylation.
Two μL of 10% DMSO in blank, substrate control and positive control wells and 2 μL of test compound in test wells was added. Thirteen μL of assay buffer in blank and substrate control wells and 13 μL of Enzyme buffer mix in positive and test wells was added. The reaction mixture was incubated for 30 minutes at RT on a plate shaker. Ultra Light-pGT substrate (5 μL) [poly Glu-Tyr (4:1) labeled with U Light TM dye, a tyrosine kinase substrate] and ATP mix was added to all wells. The reaction plate was incubated for 60 minutes at RT on a plate shaker. The reaction was stopped by adding 40 mM EDTA (10 μL) in buffer. Ten μL of antibody was added to all the wells. The plate was read in a Wallac® 1420 Multilabel Counter Victor 3 instrument (Ex: 340 nm Em: 615 & 665 nm) The following calculations were made:
F@ 665 Value-Buffer blank
F@ 615 Value-Buffer blank
Ratio of F@665/F@615-Substrate Blank
% Activity=(Test Sample/Positive control)*100%
Inhibition=(100−% Activity)

[1] = molecular target: Syk (356-635 amino acids) catalytic domain (Homo sapiens (Human), UniProt P43405); test: Inhibition of enzymatic Syk kinase activity (radiometric); format: biochemical; conditions: read-out: IC50 Syk
Source text: The objective of this assay was to examine by radiometric method the ability of compounds to inhibit Syk kinase enzyme. Syk is capable of phosphorylating substrates such as VAV, LAT, SLP-76, which in turn activate MAPK, PLCγ signaling pathways. […] This in vitro assay tests the ability of syk to phosphorylate a substrate peptide in the presence of ATP. By using a radio-labeled form of ATP, it is possible to measure the amount of phosphorylation of the substrate. The enzyme transfers a radio-labeled phosphate group from γ32 P labeled ATP to pG4T. Briefly the enzyme was incubated with substrate, radio-labeled & cold ATP and substrate in buffer with or without compounds. At the end of the reaction, the reaction mixture was transferred on to a Multiscreen filter plate and unreacted γ^32P ATP was washed off. The filter plate was dried and the radioactivity was measured on a scintillation counter to estimate the incorporated radioactivity on the substrate. The percent inhibition of activity of the enzyme was calculated by comparing counts in the presence and absence of compounds. […] 2.5 μL of 10% DMSO or compound in 10% DMSO was added to the wells in a 96 well V-bottom plate. Optimized concentration of in-house Syk enzyme (different batches of Syk (356-635) kinase domain) were used at optimized concentrations) ranging from 0.035 ng to 7.5 ng/reaction diluted in assay buffer was added to a total volume of 12.5 μL). Compound and protein were incubated for 30 minutes at room temperature on a plate shaker. Ten μL of a substrate mix containing 100 μM ATP (0.25 μL), γ-P^32-ATP (0.1 μL; 10 μCi/μL), pG4T (0.25 μL; 10 mg/mL) and 1× assay buffer (9.4 μL) was added to all the wells. Samples were incubated at 30° C. for 10 minutes after mixing. The reaction was stopped by the addition of 8N HCl (13 μL) containing 100 mM ATP. Thirty μL of sample was transferred to the center of a 2×2 cm^2 Whatman® P81 chromatography paper. After allowing the sample to dry for one minute, the assay squares were washed 3 times for 5 minutes each in ortho-phosphoric acid (0.5%) and once in acetone. Assay squares were dried for 15 minutes in a 30° C. oven and transferred to 96 well optiplate. Microscint-O® reagent (100 μL, Perkin Elmer) was added to each well, the plate was sealed with Topseal®-A microplates and incubated for 10 minutes at room temperature at very low speed on rocker and the plate was read in the Topcount® NXL instrument. The following calculations were made: Fold induction=radioactivity counts (uncorrected values) in positive control/substrate control.

Sequence of JAK2 (O60674 808-1132): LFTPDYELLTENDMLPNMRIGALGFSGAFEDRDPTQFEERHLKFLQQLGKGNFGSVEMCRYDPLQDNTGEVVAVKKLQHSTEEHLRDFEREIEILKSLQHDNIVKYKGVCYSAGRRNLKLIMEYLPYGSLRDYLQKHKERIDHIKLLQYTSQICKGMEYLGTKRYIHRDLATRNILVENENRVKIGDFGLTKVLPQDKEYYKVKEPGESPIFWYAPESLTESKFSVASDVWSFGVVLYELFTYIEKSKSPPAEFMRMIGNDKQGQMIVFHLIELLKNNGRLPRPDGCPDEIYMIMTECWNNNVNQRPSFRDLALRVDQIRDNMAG

Row | Structure (SMILES) | IC50 (JAK2) [nM] | IC50 [1] [nM]
1 | COC(=O)c1ccc(-c2nc(Nc3ccc(CN4CCNCC4)cc3)c3c(=O)[nH]ncc3n2)cc1 [Example 2, Methyl 4-(5-oxo-4-(4-(piperazin-1-ylmethyl)phenylamino)-5,6-dihydropyrimido[4,5-d]pyridazin-2-yl)benzoate hydrochloride] | > 100 | < 100
2 | O=c1[nH]ncc2nc(N3CCOCC3)nc(Nc3ccc(CN4CCNCC4)cc3)c12 [Example 3, 2-morpholino-4-(4-(piperazin-1-ylmethyl)phenylamino)pyrimido[4,5-d]pyridazin-5(6H)-one hydrochloride] | < 100 | > 100
3 | O=c1[nH]ncc2nc(-c3ccccc3)nc(Nc3ccc(CN4CCOCC4)cc3)c12 [Example 4, 4-(4-(morpholinomethyl)phenylamino)-2-phenylpyrimido[4,5-d]pyridazin-5(6H)-one] | < 50 | < 100
4 | O=C(O)CN1CCN(c2ccc(Nc3nc(-c4ccccc4)nc4cn[nH]c(=O)c34)cc2)CC1 [Example 12, 2-(4-(4-(5-oxo-2-phenyl-5,6-dihydropyrimido[4,5-d]pyridazin-4-ylamino)phenyl)piperazin-1-yl) acetic acid] | < 10 | < 50
5 | O=c1[nH]ncc2nc(N3CCC4(CC3)CC4)nc(Nc3ccc(N4CCOCC4)cc3)c12 [Example 18, 4-(4-morpholinophenylamino)-2-(6-azaspiro[2.5]octan-6-yl)pyrimido[4,5-d]pyridazin-5(6H)-one] | < 50 | > 100
6 | O=C(O)C1CC12CCN(c1ccc(Nc3nc(-c4ccccc4)nc4cn[nH]c(=O)c34)cc1)CC2 (stereo not drawn) [Example 22, sodium 6-(4-(5-oxo-2-phenyl-5,6-dihydropyrimido[4,5-d]pyridazin-4-ylamino)phenyl)-6-azaspiro[2.5]octane-1-carboxylate] | < 50 | < 100
7 | O=c1[nH]ncc2nc(-c3ccccc3)nc(Nc3ccc(CN4CCC5(CC4)COC5)cc3)c12 [Example 23, 4-(4-(2-oxa-7-azaspiro[3.5]nonan-7-ylmethyl)phenylamino)-2-phenylpyrimido[4,5-d]pyridazin-5(6H)-one] | < 100 | < 50
8 | O=C(O)c1ccc(-c2nc(Nc3ccc(CN4CCNCC4)cc3)c3c(=O)[nH]ncc3n2)cc1 [Example 27, 4-(5-oxo-4-(4-(piperazin-1-ylmethyl)phenylamino)-5,6-dihydropyrimido[4,5-d]pyridazin-2-yl)benzoic acid hydrochloride] | > 100 | > 100
9 | CCN1CCN(c2ccc(Nc3nc(-c4ccc(OC(F)(F)F)cc4)nc4cn[nH]c(=O)c34)cc2)CC1 [Example 28, 4-(4-(4-ethylpiperazin-1-yl)phenylamino)-2-(4-(trifluoromethoxy)phenyl) pyrimido[4,5-d]pyridazin-5(6H)-one] | > 100 | > 100
10 | COc1cccc(-c2nc(Nc3ccc(CN4CCNCC4)cc3)c3c(=O)[nH]ncc3n2)c1 [Example 31, 2-(3-methoxyphenyl)-4-(4-(piperazin-1-ylmethyl)phenylamino)pyrimido[4,5-d]pyridazin-5(6H)-one hydrochloride] | > 100 | < 50
11 | O=c1[nH]ncc2nc(N3CCNCC3)nc(Nc3ccc(CN4CCNCC4)cc3)c12 [Example 32, 2-(piperazin-1-yl)-4-(4-(piperazin-1-ylmethyl)phenylamino)pyrimido[4,5-d]pyridazin-5(6H)-one dihydrochloride] | > 100 | < 100
12 | COc1ccccc1-c1nc(Nc2ccc(CN3CCNCC3)cc2)c2c(=O)[nH]ncc2n1 [Example 36, 2-(2-methoxyphenyl)-4-(4-(piperazin-1-ylmethyl)phenylamino)pyrimido[4,5-d]pyridazin-5(6H)-one hydrochloride] | < 100 | > 100
13 | CCN1CCN(c2ccc(Nc3nc(-c4ccsc4)nc4cn[nH]c(=O)c34)cc2)CC1 [Example 37, 4-(4-(4-ethylpiperazin-1-yl)phenylamino)-2-(thiophen-3-yl)pyrimido[4,5-d]pyridazin-5(6H)-one hydrochloride] | < 100 | < 10
14 | O=c1[nH]ncc2nc(-c3ccc(Cl)cc3)nc(Nc3ccc(CN4CCNCC4)cc3)c12 [Example 40, 2-(4-chlorophenyl)-4-(4-(piperazin-1-ylmethyl)phenylamino)pyrimido[4,5-d]pyridazin-5(6H)-one hydrochloride] | > 100 | < 50

More lines, now with the values ahead:

Row | IC50 (JAK2) [nM] | IC50 [1] [nM] | Structure (SMILES)
15 | > 100 | < 100 | COc1ccc(-c2nc(Nc3ccc(CN4CCNCC4)cc3)c3c(=O)[nH]ncc3n2)cc1 [Example 41, 2-(4-methoxyphenyl)-4-(4-(piperazin-1-ylmethyl)phenylamino)pyrimido[4,5-d]pyridazin-5(6H)-one hydrochloride]
16 | > 100 | > 100 | O=c1[nH]ncc2nc(N3CC[S+]([O-])CC3)nc(Nc3ccc(CN4CCNCC4)cc3)c12 [Example 44, 2-(1-oxidothiomorpholino)-4-((4-(piperazin-1-ylmethyl)phenyl)amino) pyrimido[4,5-d]pyridazin-5(6H)-one hydrochloride]
17 | > 100 | > 100 | CN1CCN(c2nc(Nc3ccc(CN4CCNCC4)cc3)c3c(=O)[nH]ncc3n2)CC1 [Example 45, 2-(4-methylpiperazin-1-yl)-4-((4-(piperazin-1-ylmethyl)phenyl)amino) pyrimido[4,5-d]pyridazin-5(6H)-one hydrochloride]
18 | < 100 | < 100 | CN(C)c1nc(Nc2ccc(CN3CCNCC3)cc2)c2c(=O)[nH]ncc2n1 [Example 49, 2-(dimethylamino)-4-((4-(piperazin-1-ylmethyl)phenyl)amino)pyrimido[4,5-d]pyridazin-5(6H)-one hydrochloride]
19 | > 100 | > 100 | O=C(O)C1CCN(c2nc(Nc3ccc(CN4CCNCC4)cc3)c3c(=O)[nH]ncc3n2)CC1 [Example 51, 1-(5-oxo-4-((4-(piperazin-1-ylmethyl)phenyl)amino)-5,6-dihydropyrimido[4,5-d]pyridazin-2-yl)piperidine-4-carboxylic acid hydrochloride]
20 |  | > 100 | N#CCC1CCN(c2nc(Nc3ccc4c(c3)OCO4)c3c(=O)[nH]ncc3n2)CC1 [Example 328, 2-(1-(4-(benzo[d][1,3]dioxol-5-ylamino)-5-oxo-5,6-dihydropyrimido[4,5-d]pyridazin-2-yl)piperidin-4-yl) acetonitrile]
21 |  | > 100 | N#CCC1CCN(c2nc(Nc3ccc(N4CCC(O)CC4)cc3)c3c(=O)n(COP(=O)(O)O)ncc3n2)CC1 [Example 330, sodium (2-(4-(cyanomethyl)piperidin-1-yl)-4-((4-(4-hydroxypiperidin-1-yl)phenyl)amino)-5-oxopyrimido[4,5-d]pyridazin-6(5H)-yl)methyl phosphate]
22 |  | < 100 | N#CCC1CCN(c2nc(Nc3ccc(CO)cc3)c3c(=O)[nH]ncc3n2)CC1 [Example 332, 2-(1-(4-((4-(hydroxymethyl)phenyl)amino)-5-oxo-5,6-dihydropyrimido[4,5-d]pyridazin-2-yl)piperidin-4-yl) acetonitrile]
23 |  | > 100 | CS(=O)(=O)c1ccc(Nc2nc(N3CCC(CC#N)CC3)nc3cn[nH]c(=O)c23)cc1 [Example 333, 2-(1-(4-((4-(methylsulfonyl)phenyl)amino)-5-oxo-5,6-dihydropyrimido[4,5-d]pyridazin-2-yl)piperidin-4-yl) acetonitrile]
